Columns and labels:
aaTHEP1 [1] = molecular target: T1, aaTHEP1 (Aquifex aeolicus, UniProt O67322); assay: inhibition of [γ-32P]ATP hydrolysis, TLC on PEI-cellulose; type: biochemical
T1 sequence (O67322 1-178): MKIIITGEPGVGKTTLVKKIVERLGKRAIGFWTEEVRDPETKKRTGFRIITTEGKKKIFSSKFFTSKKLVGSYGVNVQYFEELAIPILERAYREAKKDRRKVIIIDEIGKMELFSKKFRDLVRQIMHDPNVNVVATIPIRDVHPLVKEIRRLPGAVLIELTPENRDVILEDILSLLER

aaTHEP1 [2] = molecular target: T1, aaTHEP1; assay: inhibition of [γ-32P]ATP hydrolysis, TLC autoradiography; type: biochemical; conditions: 5 and 1000 μM ATP, 5 and 1000 μM GDP, 70°C, 5 min
purified protein = substrate: Nc1ncnc2c1ncn2[C@@H]1O[C@H](COP(=O)(O)OP(=O)(O)OP(=O)(O)O)[C@@H](O)[C@H]1O; assay: purified protein; conditions: 70°C, 25 mM MgCl2, 5 mM KCl, pH 7.0, labelled compound

| Molecule | Ki (aaTHEP1 [1]) [µM] | further results |
| --- | --- | --- |
| Nc1ccn([C@@H]2O[C@H](COP(=O)(O)OP(=O)(O)OP(=O)(O)O)[C@@H](O)[C@H]2O)c(=O)n1 [CTP] | 6 ± 2 | – |
| Nc1nc2c(ncn2[C@@H]2O[C@H](COP(=O)(O)OP(=O)(O)O)[C@@H](O)[C@H]2O)c(=O)[nH]1 [GDP] | – | inhibition of [γ-32P]ATP hydrolysis, TLC autoradiography (aaTHEP1 [2]): GDP also inhibits ATP-hydrolysis, whereas GMP, AMP, and UMP show no inhibition |
| Nc1nc2c(ncn2[C@@H]2O[C@H](COP(=O)(O)OP(=O)(O)OP(=O)(O)O)[C@@H](O)[C@H]2O)c(=O)[nH]1 [GTP] | 57 ± 20 | – |
| O=c1ccn([C@@H]2O[C@H](COP(=O)(O)OP(=O)(O)OP(=O)(O)O)[C@@H](O)[C@H]2O)c(=O)[nH]1 [UTP] | 5 ± 2 | – |
| Nc1ncnc2c1ncn2[C@H]1C[C@H](O)[C@@H](COP(=O)(O)OP(=O)(O)OP(=O)(O)O)O1 [dATP] | 3 ± 0.2 | – |
| Nc1ccn([C@H]2C[C@H](O)[C@@H](COP(=O)(O)OP(=O)(O)OP(=O)(O)O)O2)c(=O)n1 [dCTP] | 9 ± 3 | – |
| Nc1nc2c(ncn2[C@H]2C[C@H](O)[C@@H](COP(=O)(O)OP(=O)(O)OP(=O)(O)O)O2)c(=O)[nH]1 [dGTP] | 18 ± 2 | – |
| Cc1cn([C@H]2C[C@H](O)[C@@H](COP(=O)(O)OP(=O)(O)OP(=O)(O)O)O2)c(=O)[nH]c1=O [dTTP] | 6 ± 2 | – |
| aaTHEP1 (Aquifex aeolicus VF5) (protein) MKIIITGEPGVGKTTLVKKIVERLGKRAIGFWTEEVRDPETKKRTGFRIITTEGKKKIFSSKFFTSKKLVGSYGVNVQYFEELAIPILERAYREAKKDRRKVIIIDEIGKMELFSKKFRDLVRQIMHDPNVNVVATIPIRDVHPLVKEIRRLPGAVLIELTPENRDVILEDILSLLER | – | Km (purified protein): 5.5 µM; kcat (purified protein): 0.005 s⁻¹ |

Source: PMC222928 (BMC Biochemistry, 2003)
